Laboratory results from PMC9005971, “Discovery of 2-(4-Acrylamidophenyl)-Quinoline-4-Carboxylic Acid Derivatives as Potent SIRT3 Inhibitors” (Frontiers in Chemistry, 2022).
Values belong to the molecule of their own block, whether it stands above or below them.

Experiments:
SIRT3 = target: T1, SIRT3 (Homo sapiens, UniProt Q9NTG7); assay: SIRT3 enzyme inhibitory assay (fluorescence); assay type: biochemical; conditions: dose of 10 μM; mean of three experiments; read-out: SIRT3 percentage inhibitory rate
T1 sequence (Q9NTG7 1-399): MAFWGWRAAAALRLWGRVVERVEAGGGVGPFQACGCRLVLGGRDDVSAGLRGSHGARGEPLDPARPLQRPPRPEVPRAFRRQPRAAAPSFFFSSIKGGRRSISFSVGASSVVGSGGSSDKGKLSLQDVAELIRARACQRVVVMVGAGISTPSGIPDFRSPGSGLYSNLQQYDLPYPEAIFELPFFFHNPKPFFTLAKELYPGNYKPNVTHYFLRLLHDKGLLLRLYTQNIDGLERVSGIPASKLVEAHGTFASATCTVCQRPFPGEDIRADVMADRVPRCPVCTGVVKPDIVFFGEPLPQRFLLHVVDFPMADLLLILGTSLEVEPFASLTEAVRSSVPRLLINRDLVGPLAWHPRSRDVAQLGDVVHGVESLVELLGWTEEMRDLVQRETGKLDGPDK
Procedure: (§1) All of the enzymatic reactions were conducted at 37°C for 30 min. […] The compounds were diluted in 10% DMSO and 5 ul of the dilution was added to each reaction mixture (50 ul). The assay was performed by quantitating the amount of fluorescent product generated from the enzyme reaction. Fluorescence intensity is then analyzed at excitation wavelength of 350–360 nm and emission wavelength of 450–460 nm on a SpectraMax M5 microtiter plate reader. The IC50 values were calculated using Prism GraphPad software.

THP-1 cells = assay: In vitro antiproliferative CCK-8 assay, THP-1; assay type: cell-based; conditions: Homo sapiens, dose of 1 μM, mean of three experiments, read-out: THP-1 percentage inhibitory rate
Procedure: The proliferation of THP-1, MOLM-13, SEM and MV4-11 cells was tested by CCK-8 assay. Briefly, cells were seeded in 96-well plate with about 5 × 10^3 cells in each well. The cells were treated with P6 or Ara-C (0–10 µM) after 24 h of incubation. CCK-8 reagent ([…]) was added to each well after 72 h of incubation, and cells were incubated at 37°C for 4 h. The light absorbance at 450 nm was measured by using an Opsys microplate reader (Dynex Technologirs, Chantilly, VA, United States). Results are illustrated as percent of cell viability normalized to DMSO-treated control cells.

SIRT1 = target: T2, SIRT1 (Homo sapiens, UniProt Q96EB6); assay: SIRT1 enzyme inhibitory assay (fluorescence); assay type: biochemical; conditions: SIRT1 enzyme activity; for activity at 0.333 µM: 333 nM
T2 sequence (Q96EB6 1-747): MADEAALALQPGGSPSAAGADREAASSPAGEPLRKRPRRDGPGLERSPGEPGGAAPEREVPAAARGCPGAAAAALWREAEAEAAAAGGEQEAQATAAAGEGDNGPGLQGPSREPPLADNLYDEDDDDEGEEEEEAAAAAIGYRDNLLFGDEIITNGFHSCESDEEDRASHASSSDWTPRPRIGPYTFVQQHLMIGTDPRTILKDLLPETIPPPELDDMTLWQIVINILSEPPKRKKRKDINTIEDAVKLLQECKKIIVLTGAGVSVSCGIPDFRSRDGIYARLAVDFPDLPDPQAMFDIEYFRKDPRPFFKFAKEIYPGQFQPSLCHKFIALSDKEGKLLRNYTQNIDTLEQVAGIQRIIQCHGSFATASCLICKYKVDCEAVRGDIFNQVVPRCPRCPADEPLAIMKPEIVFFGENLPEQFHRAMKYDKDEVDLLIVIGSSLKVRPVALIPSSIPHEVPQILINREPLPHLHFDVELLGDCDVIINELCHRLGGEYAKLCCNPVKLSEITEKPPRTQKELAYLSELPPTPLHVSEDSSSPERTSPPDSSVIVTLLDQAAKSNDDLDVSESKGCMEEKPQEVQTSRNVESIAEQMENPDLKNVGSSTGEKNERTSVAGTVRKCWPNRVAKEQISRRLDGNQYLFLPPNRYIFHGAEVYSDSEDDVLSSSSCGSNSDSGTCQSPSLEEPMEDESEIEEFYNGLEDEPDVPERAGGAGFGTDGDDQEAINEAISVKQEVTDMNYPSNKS
Procedure: as §1

SIRT2 = target: T3, SIRT2 (Homo sapiens, UniProt Q8IXJ6); assay: SIRT2 enzyme inhibitory assay (fluorescence); assay type: biochemical; conditions: for activity at 0.01 µM / activity at 0.033 µM / activity at 0.1 µM / activity at 0.333 µM / activity at 1 µM / activity at 3.3 µM / activity at 10 µM / activity at 33 µM / activity at 100 µM: SIRT2 enzyme activity; for activity at 0.01 µM: 10 nM; for activity at 0.033 µM: 33 nM; for activity at 0.1 µM: 100 nM; for activity at 0.333 µM: 333 nM
T3 sequence (Q8IXJ6 1-389): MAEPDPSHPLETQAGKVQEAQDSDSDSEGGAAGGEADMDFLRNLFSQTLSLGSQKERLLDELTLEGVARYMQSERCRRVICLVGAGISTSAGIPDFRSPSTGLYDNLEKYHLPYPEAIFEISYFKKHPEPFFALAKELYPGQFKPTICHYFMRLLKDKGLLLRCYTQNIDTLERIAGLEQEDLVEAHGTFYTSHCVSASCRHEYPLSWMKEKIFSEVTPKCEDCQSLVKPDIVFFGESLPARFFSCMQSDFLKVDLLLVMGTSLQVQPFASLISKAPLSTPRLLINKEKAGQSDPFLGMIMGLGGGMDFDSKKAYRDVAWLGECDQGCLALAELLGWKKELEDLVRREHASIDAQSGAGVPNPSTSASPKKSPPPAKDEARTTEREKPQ
Procedure: as §1

Structure (SMILES): C=CC(=O)Nc1ccc(-c2cc(C(=O)Nc3ccc(Br)cc3)c3ccccc3n2)cc1 [Compound P10, 2-(4-Acryloylamino-phenyl)-quinoline-4-carboxylic acid (4-bromo-phenyl)-amide]
- inhibition at 10 µM (SIRT3): 26.8 ± 1.88%
- inhibition at 1 µM (THP-1 cells): 44.3 ± 1.96%

Structure (SMILES): C=CC(=O)Nc1ccc(-c2cc(C(=O)N3CCN(c4ccc(F)cc4)CC3)c3ccccc3n2)cc1 [Compound P1]
- inhibition at 10 µM (SIRT3): 20.2 ± 1.22%
- inhibition at 1 µM (THP-1 cells): 32.5 ± 2.56%

Structure (SMILES): C=CC(=O)Nc1ccc(-c2cc(C(=O)Nc3ccc(CC)cc3)c3ccccc3n2)cc1 [Compound P13, 2-(4-Acryloylamino-phenyl)-quinoline-4-carboxylic acid (4-ethyl-phenyl)-amide]
- inhibition at 10 µM (SIRT3): 40.2 ± 2.91%
- inhibition at 1 µM (THP-1 cells): 59.9 ± 3.27%

Structure (SMILES): C=CC(=O)Nc1ccc(-c2cc(C(=O)Nc3ccc(F)cc3)c3ccccc3n2)cc1 [Compound P14, 2-(4-Acryloylamino-phenyl)-quinoline-4-carboxylic acid (4-fluoro-phenyl)-amide]
- inhibition at 10 µM (SIRT3): 26.4 ± 1.78%
- inhibition at 1 µM (THP-1 cells): 53.2 ± 4.26%

Structure (SMILES): C=CC(=O)Nc1ccc(-c2cc(C(=O)N3CCN(c4ccccc4OC)CC3)c3ccccc3n2)cc1 [Compound P8, N-(4-{4-[4-(2-Methoxy-phenyl)-piperazine-1-carbonyl]-quinolin-2-yl}-phenyl)-acrylamide]
- inhibition at 10 µM (SIRT3): 45.5 ± 3.67%
- inhibition at 1 µM (THP-1 cells): 73.7 ± 3.74%

Structure (SMILES): NC(=O)c1cccnc1 [Nicotinamide, reference compound]
- activity at 0.01 µM (SIRT1; 10 nM, Repeat2): 98%
- activity at 0.033 µM (SIRT1; 33 nM, Repeat2): 99%
- activity at 0.1 µM (SIRT1; 100 nM, Repeat1): 98%
- activity at 0.333 µM (SIRT1; Repeat1): 99%
- activity at 0.333 µM (SIRT1; Repeat2): 97%
- activity at 1 µM (SIRT1; 1 µM, Repeat1): 100%
- activity at 3.3 µM (SIRT1; Repeat1): 93%
- activity at 3.3 µM (SIRT1; Repeat2): 96%
- activity at 10 µM (SIRT1; Repeat1): 79%
- activity at 10 µM (SIRT1; Repeat2): 73%
- activity at 33 µM (SIRT1; Repeat1): 59%
- activity at 33 µM (SIRT1; Repeat2): 52%
- activity at 100 µM (SIRT1; Repeat1): 10%
- activity at 100 µM (SIRT1; Repeat2): 17%
- activity at 0.01 µM (SIRT2; Repeat1): 100%
- activity at 0.01 µM (SIRT2; Repeat2): 99%
- activity at 0.033 µM (SIRT2; Repeat1): 99%
- activity at 0.033 µM (SIRT2; Repeat2): 98%
- activity at 0.1 µM (SIRT2; Repeat1): 97%
- activity at 0.333 µM (SIRT2; Repeat1): 100%
- activity at 0.333 µM (SIRT2; Repeat2): 100%
- activity at 1 µM (SIRT2; Repeat2): 99%
- activity at 3.3 µM (SIRT2; Repeat1): 92%
- activity at 3.3 µM (SIRT2; Repeat2): 91%
- activity at 10 µM (SIRT2; Repeat1): 79%
- activity at 10 µM (SIRT2; Repeat2): 69%
- activity at 33 µM (SIRT2; Repeat1): 39%
- activity at 33 µM (SIRT2; Repeat2): 43%
- activity at 100 µM (SIRT2; Repeat1): 17%
- activity at 100 µM (SIRT2; Repeat2): 12%

Structure (SMILES): C=CC(=O)Nc1ccc(-c2cc(C(=O)N3CCN(c4ccc(OC)cc4)CC3)c3ccccc3n2)cc1 [Compound P7, N-(4-{4-[4-(4-Methoxy-phenyl)-piperazine-1-carbonyl]-quinolin-2-yl}-phenyl)-acrylamide]
- inhibition at 10 µM (SIRT3): 24.9 ± 1.47%
- inhibition at 1 µM (THP-1 cells): 12.4 ± 1.07%

Structure (SMILES): C=CC(=O)Nc1ccc(-c2cc(C(=O)N3CCN(CCc4ccccc4)CC3)c3ccccc3n2)cc1 [Compound P9, N-{4-[4-(4-Phenethyl-piperazine-1-carbonyl)-quinolin-2-yl]-phenyl}-acrylamide]
- inhibition at 10 µM (SIRT3): 30.2 ± 1.94%
- inhibition at 1 µM (THP-1 cells): 11.7 ± 0.88%

Structure (SMILES): C=CC(=O)Nc1ccc(-c2cc(C(=O)Nc3ccc(Cl)cc3)c3ccccc3n2)cc1 [Compound P11, 2-(4-Acryloylamino-phenyl)-quinoline-4-carboxylic acid (4-chloro-phenyl)-amide]
- inhibition at 10 µM (SIRT3): 35.7 ± 1.54%
- inhibition at 1 µM (THP-1 cells): 58 ± 2.08%

Structure (SMILES): C=CC(=O)Nc1ccc(-c2cc(C(=O)N3CCN(c4cccc(Cl)c4)CC3)c3ccccc3n2)cc1 [Compound P4, N-(4-{4-[4-(3-Chloro-phenyl)-piperazine-1-carbonyl]-quinolin-2-yl}-phenyl)-acrylamide]
- inhibition at 10 µM (SIRT3): 21.8 ± 1.62%
- inhibition at 1 µM (THP-1 cells): 57.9 ± 3.04%

Structure (SMILES): C=CC(=O)Nc1ccc(-c2cc(C(=O)N3CCN(c4ccc(Cl)cc4)CC3)c3ccccc3n2)cc1 [Compound P5, N-(4-{4-[4-(4-Chloro-phenyl)-piperazine-1-carbonyl]-quinolin-2-yl}-phenyl)-acrylamide]
- inhibition at 10 µM (SIRT3): 22.6 ± 1.87%
- inhibition at 1 µM (THP-1 cells): 56 ± 2.66%

The next lines start with results.

- inhibition at 10 µM (SIRT3): 28.4 ± 1.85%
Structure (SMILES): C=CC(=O)Nc1ccc(-c2cc(C(=O)Nc3ccc(OC)cc3)c3ccccc3n2)cc1 [Compound P16, 2-(4-Acryloylamino-phenyl)-quinoline-4-carboxylic acid (4-methoxy-phenyl)-amide]
- inhibition at 1 µM (THP-1 cells): 13.3 ± 1.23%

- inhibition at 10 µM (SIRT3): 42.8 ± 1.26%
Structure (SMILES): C=CC(=O)Nc1ccc(-c2cc(C(=O)Nc3cc(OC)cc(OC)c3)c3ccccc3n2)cc1 [Compound P15, 2-(4-Acryloylamino-phenyl)-quinoline-4-carboxylic acid (3,5-dimethoxy-phenyl)-amide]
- inhibition at 1 µM (THP-1 cells): 49.6 ± 2.52%

- inhibition at 10 µM (SIRT3): 29.6 ± 1.43%
Structure (SMILES): C=CC(=O)Nc1ccc(-c2cc(C(=O)Nc3ccc(OCC)cc3)c3ccccc3n2)cc1 [Compound P17, 2-(4-Acryloylamino-phenyl)-quinoline-4-carboxylic acid (4-ethoxy-phenyl)-amide]
- inhibition at 1 µM (THP-1 cells): 13.8 ± 1.01%

- activity at 0.01 µM (SIRT2; Repeat1): 101%
- activity at 0.01 µM (SIRT2; Repeat2): 99%
- activity at 0.033 µM (SIRT2; Repeat1): 99%
- activity at 0.033 µM (SIRT2; Repeat2): 99%
- activity at 0.1 µM (SIRT2; Repeat1): 101%
- activity at 0.1 µM (SIRT2; Repeat2): 101%
- activity at 0.333 µM (SIRT2; Repeat1): 96%
- activity at 0.333 µM (SIRT2; Repeat2): 98%
- activity at 1 µM (SIRT2; Repeat1): 97%
- activity at 1 µM (SIRT2; Repeat2): 98%
- activity at 3.3 µM (SIRT2; Repeat1): 100%
- activity at 3.3 µM (SIRT2; Repeat2): 99%
- activity at 10 µM (SIRT2; Repeat1): 91%
- activity at 10 µM (SIRT2; Repeat2): 86%
- activity at 33 µM (SIRT2; Repeat1): 79%
- activity at 33 µM (SIRT2; Repeat2): 76%
- activity at 100 µM (SIRT2; Repeat1): 34%
- activity at 100 µM (SIRT2; Repeat2): 28%
- IC50 (SIRT2; mean of two experiments): 63.6 ± 4.2 µM
Structure (SMILES): C=CC(=O)Nc1ccc(-c2cc(C(=O)Nc3ccc(N4CCN(C)CC4)cc3)c3ccccc3n2)cc1 [Compound P19]

- inhibition at 10 µM (SIRT3): 30.6 ± 2.89%
Structure (SMILES): C=CC(=O)Nc1ccc(-c2cc(C(=O)Nc3ccc(CCCCC)cc3)c3ccccc3n2)cc1 [Compound P18, 2-(4-Acryloylamino-phenyl)-quinoline-4-carboxylic acid (4-pentyl-phenyl)-amide]
- inhibition at 1 µM (THP-1 cells): 30 ± 1.39%
